Assay results from patent publication US20240024273A1, “TOPICAL ADMINISTRATION OF 2-(DIETHYLAMINO)ETHYL 2-(4-ISOBUTYLPHENYL)PROPRIONATE FOR TREATMENT OF DISEASES” (TECHFIELDS PHARMA CO., LTD., priority 2020, published 2024).

Test system: Mild to Moderate Osteoarthritis of the Knee
Assay: Phase 2 study: WOMAC difficulty performing daily activities subscale score
Type: in vivo, human
Details: for Change of WOMAC Difficulty performing daily activities score from baseline (±SEM) / Percentage of improvement from baseline, WOMAC Difficulty performing daily activities score: all patients taken as active
Excerpt: This is a Phase 2, multicenter, randomized, double blind (within dose), placebo controlled, parallel group, proof of concept, and dose range finding study to evaluate the efficacy, safety, and PK of 2-(diethylamino)ethyl 2-(4-isobutylphenyl)propionate hydrochloride spray in adult subjects with clinically symptomatic mild to moderate OA of the knee. For subjects with bilateral knee pain, both knees will be treated, but the most symptomatic knee (i.e., the most painful knee as measured by the Western Ontario and McMaster University Osteoarthritis Index [WOMAC® 3.1] pain subscale score at Screening) will be designated as the target knee for efficacy analyses. For subjects with unilateral knee pain, only the symptomatic (target) knee will be treated.
After a Screening Period of up to 3 weeks and radiographic evaluation of the target knee joint space, a subject will be randomly assigned to 1 of 3 treatment groups in a 1:1:1 ratio with a 2:1 ratio of active:placebo within each treatment group (ie, 2 subjects to active treatment and 1 subject to placebo): • Group A: 8.75 mg 2-(diethylamino)ethyl 2-(4-isobutylphenyl)propionate/knee (2 sprays/knee, one spray to the medial surface and one spray to the lateral surface of the knee), twice daily (BID, approximately every 12 hours; n=50) or placebo (2 sprays/knee), BID (approximately every 12 hours; n=25) for a total of 4 sprays per knee per day; • Group B: 17.5 mg 2-(diethylamino)ethyl 2-(4-isobutylphenyl)propionate/knee (4 sprays/knee, one spray to the medial surface and one spray to the lateral surface of the knee, and one spray to front and one spray to the back of the knee), BID (approximately every 12 hours; n=50) or placebo (4 sprays/knee), BID (approximately every 12 hours; n=25) for a total of 8 sprays per knee per day; • Group C: 35 mg 2-(diethylamino)ethyl 2-(4-isobutylphenyl)propionate/knee (8 sprays/knee, each spray is to be applied to a different non-overlapping area around the knee, and the areas are to be uniformly distributed around the knee), BID (approximately every 12 hours; n=50) or placebo (8 sprays/knee), BID (approximately every 12 hours; n=25) for a total of 16 sprays per knee per day.
The VAS version of the WOMAC will be used for the Primary and Secondary Efficacy Endpoints. Efficacy endpoints will be assessed at Screening and Baseline (Day 1) and at the Week 2, Week 4, Week 8, and Week 12/EOS visits.
3.9.2. Secondary Efficacy Endpoints: • 1. Change from Baseline in the WOMAC (VAS) pain subscale score for the target knee at 2, 4, and 8 weeks of treatment; • 2. Change from Baseline in the WOMAC (VAS) stiffness subscale scores for the target knee and WOMAC (VAS) functional ability subscale scores at 2, 4, 8, and 12 weeks of treatment; • 3. Change from Baseline in the overall WOMAC (VAS) score at 2, 4, 8, and 12 weeks of treatment.
The Secondary Efficacy Endpoints, change from Baseline in the WOMAC subscale scores for pain, stiffness, and functional ability, and overall WOMAC score at 2, 4, 8, and 12 weeks of treatment, will be analyzed using the same methods as for the Primary Efficacy Endpoint.
To determine this, we assumed that all patients received 2-(diethylamino)ethyl 2-(4-isobutylphenyl)propionate, active drug treatment (i.e. all patients who received 2-(diethylamino)ethyl 2-(4-isobutylphenyl)propionate or placebo treatment for 12 weeks or mixed up treatment during the 12-week treatment, as 2-(diethylamino)ethyl 2-(4-isobutylphenyl)propionate-treated). Based on this assumption, that is, to treat this trial as an open-label study and that all patients received active treatment, we conducted efficacy analysis using top-line efficacy datasets prepared by CRO and the re-analysis results are presented in the following tables (Tables 29-47). […] (William G. Bensen, Justus J. Fiechtner, James 1. McMillen, et. al. Treatment of Osteoarthritis with Celecoxib. Mayo Clin Proc, November 1999. Vol 74, 1095-1105.)

[1] = 8.75 mg/knee (BID), Follow up (week 13, day 91)
[2] = 8.75 mg/knee (BID), Week 2 (day 14)
[3] = 8.75 mg/knee (BID), Week 4 (day 28)
[4] = 8.75 mg/knee (BID), Week 8 (day 56)
[5] = 8.75 mg/knee (BID), Week 12 (day 84)
[6] = 17.5 mg/knee (BID), Follow up (week 13, day 91)
[7] = 17.5 mg/knee (BID), Week 2 (day 14)
[8] = 17.5 mg/knee (BID), Week 4 (day 28)
[9] = 17.5 mg/knee (BID), Week 8 (day 56)
[10] = 17.5 mg/knee (BID), Week 12 (day 84)
[11] = 35 mg/knee (BID), Follow up (week 13, day 91)
[12] = 35 mg/knee (BID), Week 2 (day 14)
[13] = 35 mg/knee (BID), Week 4 (day 28)

## CCN(CC)CCOC(=O)C(C)c1ccc(CC(C)C)cc1 (stereo not shown) [2-(diethylamino)ethyl 2-(4-isobutylphenyl)propionate]
[1]
  Change of WOMAC Difficulty performing daily activities score from baseline (±SEM), adjusted by […] of the Testing Drug Amount: −34.6(±5.8) mm
  Percentage of improvement from baseline, WOMAC Difficulty performing daily activities score, adjusted by […] of the Testing Drug Amount: −57.6%
  Change of WOMAC Difficulty performing daily activities score from baseline (±SEM): −20.3(±3.4) mm
  Percentage of improvement from baseline, WOMAC Difficulty performing daily activities score: −33.6%
[2]
  Change of WOMAC Difficulty performing daily activities score from baseline (±SEM), adjusted by […] of the Testing Drug Amount: −18.2(±4.4) mm
  Percentage of improvement from baseline, WOMAC Difficulty performing daily activities score, adjusted by […] of the Testing Drug Amount: −30.0%
  Change of WOMAC Difficulty performing daily activities score from baseline (±SEM): −10.6(±2.6) mm
  Percentage of improvement from baseline, WOMAC Difficulty performing daily activities score: −17.5%
[3]
  Change of WOMAC Difficulty performing daily activities score from baseline (±SEM), adjusted by […] of the Testing Drug Amount: −28.1(±5.1) mm
  Percentage of improvement from baseline, WOMAC Difficulty performing daily activities score, adjusted by […] of the Testing Drug Amount: −46.7%
  Change of WOMAC Difficulty performing daily activities score from baseline (±SEM): −16.4(±3.0) mm
  Percentage of improvement from baseline, WOMAC Difficulty performing daily activities score: −27.2%
[4]
  Change of WOMAC Difficulty performing daily activities score from baseline (±SEM), adjusted by […] of the Testing Drug Amount: −33.1(±5.3) mm
  Percentage of improvement from baseline, WOMAC Difficulty performing daily activities score, adjusted by […] of the Testing Drug Amount: −54.9%
  Change of WOMAC Difficulty performing daily activities score from baseline (±SEM): −19.3(±3.1) mm
  Percentage of improvement from baseline, WOMAC Difficulty performing daily activities score: −32.0%
[5]
  Change of WOMAC Difficulty performing daily activities score from baseline (±SEM), adjusted by […] of the Testing Drug Amount: −35.3(±5.8) mm
  Percentage of improvement from baseline, WOMAC Difficulty performing daily activities score, adjusted by […] of the Testing Drug Amount: −58.5%
  Change of WOMAC Difficulty performing daily activities score from baseline (±SEM): −20.6(±3.4) mm
  Percentage of improvement from baseline, WOMAC Difficulty performing daily activities score: −34.1%
[6]
  Change of WOMAC Difficulty performing daily activities score from baseline (±SEM), adjusted by […] of the Testing Drug Amount: −39.6(±5.5) mm
  Percentage of improvement from baseline, WOMAC Difficulty performing daily activities score, adjusted by […] of the Testing Drug Amount: −62.4%
  Change of WOMAC Difficulty performing daily activities score from baseline (±SEM): −23.1(±3.2) mm
  Percentage of improvement from baseline, WOMAC Difficulty performing daily activities score: −36.4%
[7]
  Change of WOMAC Difficulty performing daily activities score from baseline (±SEM), adjusted by […] of the Testing Drug Amount: −26.2(±4.1) mm
  Percentage of improvement from baseline, WOMAC Difficulty performing daily activities score, adjusted by […] of the Testing Drug Amount: −41.3%
  Change of WOMAC Difficulty performing daily activities score from baseline (±SEM): −15.3(±2.4) mm
  Percentage of improvement from baseline, WOMAC Difficulty performing daily activities score: −24.1%
[8]
  Change of WOMAC Difficulty performing daily activities score from baseline (±SEM), adjusted by […] of the Testing Drug Amount: −36.2(±4.8) mm
  Percentage of improvement from baseline, WOMAC Difficulty performing daily activities score, adjusted by […] of the Testing Drug Amount: −57.1%
  Percentage of improvement from baseline, WOMAC Difficulty performing daily activities score: −33.3%
[9]
  Change of WOMAC Difficulty performing daily activities score from baseline (±SEM), adjusted by […] of the Testing Drug Amount: −41.3(±5.1) mm
  Percentage of improvement from baseline, WOMAC Difficulty performing daily activities score, adjusted by […] of the Testing Drug Amount: −65.2%
  Change of WOMAC Difficulty performing daily activities score from baseline (±SEM): −24.1(±3.0) mm
  Percentage of improvement from baseline, WOMAC Difficulty performing daily activities score: −38.0%
[10]
  Change of WOMAC Difficulty performing daily activities score from baseline (±SEM), adjusted by […] of the Testing Drug Amount: −46.1(±5.5) mm
  Percentage of improvement from baseline, WOMAC Difficulty performing daily activities score, adjusted by […] of the Testing Drug Amount: −72.7%
  Change of WOMAC Difficulty performing daily activities score from baseline (±SEM): −26.9(±3.2) mm
  Percentage of improvement from baseline, WOMAC Difficulty performing daily activities score: −42.4%
[11]
  Change of WOMAC Difficulty performing daily activities score from baseline (±SEM), adjusted by […] of the Testing Drug Amount: −35.0(±4.5) mm
  Percentage of improvement from baseline, WOMAC Difficulty performing daily activities score, adjusted by […] of the Testing Drug Amount: −60.9%
  Change of WOMAC Difficulty performing daily activities score from baseline (±SEM): −20.4(±2.6) mm
  Percentage of improvement from baseline, WOMAC Difficulty performing daily activities score: −35.5%
[12]
  Change of WOMAC Difficulty performing daily activities score from baseline (±SEM), adjusted by […] of the Testing Drug Amount: −16.1(±3.3) mm
  Percentage of improvement from baseline, WOMAC Difficulty performing daily activities score, adjusted by […] of the Testing Drug Amount: −28.1%
  Change of WOMAC Difficulty performing daily activities score from baseline (±SEM): −9.4(±1.9) mm
  Percentage of improvement from baseline, WOMAC Difficulty performing daily activities score: −16.4%
[13]
  Change of WOMAC Difficulty performing daily activities score from baseline (±SEM), adjusted by […] of the Testing Drug Amount: −23.0(±3.9) mm
  Percentage of improvement from baseline, WOMAC Difficulty performing daily activities score, adjusted by […] of the Testing Drug Amount: −40.0%
  Change of WOMAC Difficulty performing daily activities score from baseline (±SEM): −13.4(±2.3) mm
  Percentage of improvement from baseline, WOMAC Difficulty performing daily activities score: −23.3%
35 mg/knee (BID), Week 8 (day 56)
  Change of WOMAC Difficulty performing daily activities score from baseline (±SEM), adjusted by […] of the Testing Drug Amount: −31.6(±4.5) mm
